According to patent publication US20250109140A1, “5-[5-(PIPERIDIN-4-YL)THIENO[3,2-C]PYRAZOL-2-YL]INDAZOLE DERIVATIVES AND RELATED COMPOUNDS AS MODULATORS FOR SPLICING NUCLEIC ACIDS AND FOR THE TREATMENT OF PROLIFERATIVE DISEASES” (REMIX THERAPUTICS INC., priority 2022, published 2025):
Where a name gives a salt, the structure may show the parent alone. Read-outs that look alike come from different tables or passages of the source.

How the values were obtained:
HTT mRNA = test: Splicing RT-qPCR assay, HTT canonical (CJ) and alternative (AJ) junction mRNA; type: cell-based; details: Homo sapiens; for EC50: AC50 = 50% response in AJ mRNA increase
Summary of the method: (§1)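 Readout is RT-qPCR of CJ and AJ mRNA in lysates from A673 or K562 cells given an 11-point titration (top dose 10 uM final, DMSO at most 0.25%) for 24 hours. Data were normalized to GAPDH, GUSB or PPIA, then to DMSO.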

MYB mRNA = test: Splicing RT-qPCR assay, MYB canonical (CJ) and alternative (AJ) junction mRNA; type: cell-based; details: Homo sapiens; for EC50: AC50 = 50% response in AJ mRNA increase
Summary of the method: as §1

SMN2 mRNA = test: Splicing RT-qPCR gene panel, SMN2 canonical junction (CJ) mRNA; type: cell-based; details: Homo sapiens; Table 8; larger gene panel, decrease in CJ mRNA levels
Summary of the method: as §1

Target C mRNA = test: Splicing RT-qPCR gene panel, Target C canonical junction (CJ) mRNA; type: cell-based; details: Homo sapiens; Table 8; larger gene panel, decrease in CJ mRNA levels
Summary of the method: as §1

HiBiT-tagged MYB protein = test: HiBiT protein abundance assay, MYB (K562 HiBiT knock-in cells); type: cell-based, human; details: 24 hours treatment
Summary of the method: (§2)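 Luminescence from the Nano-Glo HiBiT lytic reagent measured tagged protein remaining in knock-in K562 cells after 24 h compound exposure (top dose 10 µM final, 3-fold, 10 points). Responses normalized between parental K562 and DMSO-treated lines were fit by four-parameter logistic to interpolate the 50% concentration.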

HiBiT-tagged HTT protein = test: HiBiT protein abundance assay, HTT (K562 HiBiT knock-in cells); type: cell-based, human; details: 24 hours treatment
Summary of the method: as §2

[1] = test system: K562 (human chronic myelogenous leukemia) cells; test: Cell viability, Cell Titer Glo 2.0 assay, K562 cells; type: cell-based; details: 72 hours
Summary of the method: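 Luminescent Cell Titer Glo 2.0 readout after 72 h exposure (37° C, 5% CO2), medium-only wells as blank. Cells plated 500/well in IMDM with 10% FBS; test compounds diluted from DMSO series 1:100 into medium, 0.1% DMSO final.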

Target C = test: HiBiT protein abundance assay, Target C (K562 HiBiT knock-in cells); type: cell-based, human; details: 24 hours treatment
Summary of the method: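 The readout was Nano-Glo HiBiT lytic luminescence after 24 h compound exposure at 37 °C, in 10000 K562 knock-in cells/well. Compounds ran as 10-point, 3-fold series, top final […], ≤0.25% DMSO. Responses were scaled between parental K562 and DMSO-treated controls, and IC50 was interpolated at 50% from four-parameter logistic curves.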

[2] = Table 7, RT-qPCR, A673 or K562 cells, 24 hours treatment
[3] = Table 7, IC50 = 50% response in CJ mRNA decrease, RT-qPCR, A673 or K562 cells, 24 hours treatment, read-out: HTT CJ
[4] = Table 8, larger gene panel, decrease in CJ mRNA levels, read-out: HTT CJ IC50
[5] = Table 7, IC50 = 50% response in CJ mRNA decrease, RT-qPCR, A673 or K562 cells, 24 hours treatment, read-out: MYB CJ
[6] = Table 8, larger gene panel, decrease in CJ mRNA levels, read-out: MYB CJ IC50

Structure (SMILES)	EC50 (HTT mRNA; [2]) [µM]	IC50 (HTT mRNA; [3]) [µM]	IC50 (HTT mRNA; [4]) [µM]	EC50 (MYB mRNA; [2]) [µM]	IC50 (MYB mRNA; [5]) [µM]	IC50 (MYB mRNA; [6]) [µM]	IC50 (SMN2 mRNA) [µM]	IC50 (Target C mRNA) [µM]	IC50 (HiBiT-tagged MYB protein) [µM]	IC50 (HiBiT-tagged HTT protein) [µM]	IC50 [1] [µM]	IC50 (Target C) [µM]
Cc1cn2nc(-c3cc4cn([C@H]5CCNC[C@@H]5F)nc4s3)cc(C)c2n1 (mixture of isomers) [Compound 212, 5-(2,8-dimethylimidazo[1,2-b]pyridazin-6-yl)-2-((1:1 mixture of 3S,4S and 3R,4R)-3-fluoropiperidin-4-yl)-2H-thieno[2,3-c]pyrazole]	1 to 10	1 to 10	1 to 10	> 10	1 to 10	> 10	0.1 to 1	> 10	> 10	1 to 10	1 to 10	> 10
Cc1cn2cc(-n3cc4cc(C5CCNCC5)sc4n3)nc2c(C)n1 [Compound 227]	1 to 10	0.1 to 1	0.1 to 1	1 to 10	1 to 10	1 to 10	0.1 to 1	1 to 10	1 to 10	0.1 to 1	1 to 10	1 to 10
Cc1cn2cc(-n3cc4sc(C5CCNCC5)cc4n3)nc2c(C)n1 [Compound 181]	1 to 10	1 to 10	1 to 10	> 10	> 10	> 10	1 to 10	> 10	1 to 10	1 to 10	1 to 10	> 10
Cn1cc2cc(-c3nc4cn(C5CCNCC5)nc4s3)c(O)c(F)c2n1 [Compound 1107]	0.1 to 1	0.1 to 1	0.1 to 1	0.1 to 1	0.1 to 1	0.1 to 1	< 0.1	0.1 to 1	1 to 10	0.1 to 1	1 to 10	0.1 to 1
c1n[nH]cc1-n1cc2sc(C3CCNCC3)cc2n1 [Compound 176]	> 10	> 10	> 10	> 10	> 10	> 10	> 10	> 10	> 10	> 10	> 10	> 10

Continued, values first:

EC50 (HTT mRNA; [2]) [µM]	IC50 (HTT mRNA; [3]) [µM]	IC50 (HTT mRNA; [4]) [µM]	EC50 (MYB mRNA; [2]) [µM]	IC50 (MYB mRNA; [5]) [µM]	IC50 (MYB mRNA; [6]) [µM]	IC50 (SMN2 mRNA) [µM]	IC50 (Target C mRNA) [µM]	IC50 (HiBiT-tagged MYB protein) [µM]	IC50 (HiBiT-tagged HTT protein) [µM]	IC50 [1] [µM]	IC50 (Target C) [µM]	Structure (SMILES)
< 0.1	< 0.1	< 0.1	0.1 to 1	0.1 to 1	0.1 to 1	< 0.1	0.1 to 1	0.1 to 1	< 0.1	1 to 10	0.1 to 1	Cn1cc2cc(-c3cc4cn([C@@H]5CCNC[C@H]5F)nc4s3)cc(F)c2n1 [Compound 187]
< 0.1	< 0.1	< 0.1	0.1 to 1	0.1 to 1	0.1 to 1	< 0.1	0.1 to 1	0.1 to 1	< 0.1	0.1 to 1	< 0.1	Cc1cc(-c2cc3cn(C4CCNCC4)nc3s2)cc2cn(C)nc12 [Compound 225]
1 to 10	1 to 10	1 to 10	1 to 10	1 to 10	1 to 10	1 to 10	> 10	1 to 10	1 to 10	1 to 10	> 10	Cn1cc2cc(-c3cc4cn([C@@H]5CCNC5)nc4s3)cc(F)c2n1 [Compound 160, (R)-5-(7-fluoro-2-methyl-2H-indazol-5-yl)-2-(pyrrolidin-3-yl)-2H-thieno[2,3-c]pyrazole hydrochloride]
< 0.1	< 0.1	< 0.1	0.1 to 1	< 0.1	0.1 to 1	< 0.1	< 0.1	< 0.1	< 0.1	< 0.1	< 0.1	Cn1cc2cc(-c3cc4cn(C5CCNCC5)nc4s3)cc(F)c2n1 [Compound 122, 7-fluoro-2-methyl-5-[2-(piperidin-4-yl)thieno[2,3-c]pyrazol-5-yl]indazole]
